From patent publication US6299906A, “Process for making submicron particles” (Hoffmann-La Roche Inc., priority 1998, dated 2001)
≈ marks a conversion by molar mass, not a printed value. Where two headings read alike, the source gives them in different places. Blank lines part the entries; values can stand above or below the molecule they belong to.

Experiments:
[1] = Solubility of drug substances in liquid carbon dioxide and dimethyl ether (HPLC or gravimetric); assay type: physicochemical
Description: A comparison of solubilities of a number of pharmaceutical drug substances was performed as follows:
Approximately 3-5 g of the drug product was slightly compressed in a uniaxial press to avoid the formation of a stable suspension. The so compressed powder was placed in a pressure chamber with a sapphire glass (30 ml volume). The temperature of the pressure chamber was controlled by water bath. Then the pressure in the chamber was increased using the corresponding gas and equilibrated for 1-3 hours. After equilibration a 1.0 ml sample was drawn under constant pressure and temperature conditions using a high pressure line with a defined volume. […] The sample container was afterwards rinsed with the same liquid to collect the residues of the substance in the sample container.

[2] = Particle size distribution of THL by laser diffraction, influence of the spraying time (Example 2); assay type: physicochemical; settings: for Dv 0.1 / Dv 0.5 / Dv 0.9: CO2 200 bar, 40° C., Brij 96
Text: (§1) The particle size distribution of very small particles of approximately 1 μm is difficult to determine accurately. Two commonly used methods are photon correlation spectroscopy (PCS) and laser diffraction. Photon correlation spectroscopy is commonly used for characterization of submicron suspensions and emulsions. Due to the principle of the measurement, movement of particles, particles larger than 3 to 5 μm cannot be seen with this method. With laser diffraction small particles, >0.1 μm, as well as larger particles, up to 2 mm, can be characterized in parallel. The diffraction of the light is thereby measured at small diffraction angles. For very small particles the method tends to overestimate the particle size due to transmission of light through the particles.
(§2) Formation of fractions of coarse particles was observed especially after clogging of the nozzle, e.g. expansion of a compound dissolved in a compressed gas without modifier. To be able to detect the presence of coarse particles, laser diffraction was chosen to characterize the whole suspension. With its wide dynamic range, laser diffraction allows the detection of particles up to 2 mm that cannot be seen by the PCS method. Since laser diffraction tends to overestimate the particle size (FIGS. 2, 3), all the particle sizes determined by laser diffraction can be considered as too large.
150 g of solid THL and 75 g Brij 96 in a container with two sinter plates was charged into an autoclave having a volume of 6 liter. The autoclave was kept at a temperature of 40° C. with a water bath. Then the autoclave was filled with CO2 up to a pressure of 200 bar and equilibrated for 90 min.
The autoclave was connected to a second autoclave via a heated high pressure line, kept at 40° C. […] The dissolved THL was sprayed into 1.25 liter of an aqueous solution of Brij 96 (0.06%=1 CMC) in this second autoclave. The pressure of the first autoclave was kept constant at 200 bar by pumping in additional gas.
After 90, 150, and 180 minutes of spraying, a sample for particle size distribution was drawn. After 180 min the whole amount of THL/Brij was removed from the first container (≈12% THL in the final suspension).

[3] = Particle size distribution of Saquinavir by Photon Correlation Spectroscopy (FIG. 2); assay type: physicochemical; settings: batch no. 1051/30, Angle 90
Text: as §1

[4] = Particle size distribution of Saquinavir by laser diffraction, influence of the pressure in the first container (Example 3); assay type: physicochemical; settings: DME, Aerosol OT, 40° C.
Text: as §1, §2
The autoclave was kept at a temperature of 40° C. with a water bath. Then the autoclave was filled with DME up to different pressures and equilibrated for 90 min.
The autoclave was connected to a second autoclave via a heated high pressure line, kept at 25° C., 5 bar. […] The pressure of the first autoclave was kept constant by pumping in additional gas.
The nozzle diameter was 0.1 mm. As commonly known a further decrease of particle size can be obtained by decrease of the nozzle diameter.

[5] = Text: as §1
To be able to detect the presence of coarse particles, laser diffraction was chosen to characterize the whole suspension. With its wide dynamic range, laser diffraction allows the detection of particles up to 2 mm that cannot be seen by the PCS method.
The autoclave was kept at a temperature of 40° C. with a water bath. Then the autoclave was filled with DME up to 200 bar and equilibrated for 90 min.
The autoclave was connected to a second autoclave via a heated high pressure line, kept at 25° C., at 5 bar. […] The pressure of the first autoclave was kept constant by pumping in additional gas.

[6] = liquid co2, organic solvent or mixture, CO2, 45° C./200 bar, read-out: solubility (CO2)
[7] = organic solvent or mixture, dimethyl ether, 45° C./200 bar, read-out: solubility (DME)
[8] = pressure l00 bar (so in the source)
[9] = surfactant Brij 96, DME 200 bar, 40° C.

SMILES: COc1ccccc1Oc1c(NS(=O)(=O)c2ccc(C(C)(C)C)cc2)nc(-c2ncccn2)nc1OCCO [Bosentan]
solubility [1, 6]: < 1 mg/mL
solubility [1, 7]: 90 mg/mL (≈ 163 mM)

SMILES: CCCCCCCCCCC[C@@H](C[C@@H]1OC(=O)[C@H]1CCCCCC)OC(=O)[C@H](CC(C)C)NC=O [Orlistat, Tetrahydrolipstatin]
resulting particle size distribution ([2]; over the whole trial (up to 180 min spraying)): kept almost constant over the whole trial
Dv 0.1 ([2]; spraying time 90 min): 0.6 μm
Dv 0.5 ([2]; spraying time 90 min): 1.4 μm
Dv 0.9 ([2]; spraying time 90 min): 2.9 μm
Dv 0.1 ([2]; spraying time 150 min): 0.4 μm
Dv 0.5 ([2]; spraying time 150 min): 1.5 μm
Dv 0.9 ([2]; spraying time 150 min): 3.5 μm
Dv 0.1 ([2]; spraying time 180 min): 0.9 μm
Dv 0.5 ([2]; spraying time 180 min): 2.1 μm
Dv 0.9 ([2]; spraying time 180 min): 4.5 μm
solubility ([1]; organic solvent or mixture, dimethyl ether, 20° C./4.5 bar, read-out: solubility (DME)): 178 mg/mL (≈ 359 mM)
solubility ([1]; organic solvent or mixture, liquid CO2, 30° C./100 bar, read-out: solubility (CO2)): 6 mg/mL (≈ 12.1 mM)

Results, then the molecule that gave them:

solubility [1, 6]: 3 mg/mL (≈ 9.99 mM)
solubility [1, 7]: 60 mg/mL (≈ 200 mM)
SMILES: CC1=C(/C=C/C(C)=C/C=C/C(C)=C\C(=O)O)C(C)(C)CCC1 [Isotretionin]

solubility [1, 6]: 3.5 mg/mL (≈ 13 mM)
solubility [1, 7]: 37 mg/mL (≈ 138 mM)
SMILES: O=C(NCCN1CCOCC1)c1ccc(Cl)cc1 [Moclobemide]

Poly [3]: 0.031
ZAve [3]: 254.7
solubility [1, 6]: < 1 mg/mL
solubility ([1]; organic solvent or mixture, dimethyl ether, 25° C./100 bar, read-out: solubility (DME)): > 100 mg/mL
Dv 0.1 ([4]; pressure 50 bar): 0.5 μm
Dv 0.5 ([4]; pressure 50 bar): 3.8 μm
Dv 0.9 ([4]; pressure 50 bar): 6.4 μm
Dv 0.1 ([4]; pressure 200 bar): 0.9 μm
Dv 0.5 ([4]; pressure 200 bar): 1.5 μm
Dv 0.9 ([4]; pressure 200 bar): 2.4 μm
Dv 0.1 ([4]; pressure 280 bar): 0.4 μm
Dv 0.5 ([4]; pressure 280 bar): 0.8 μm
Dv 0.9 ([4]; pressure 280 bar): 1.7 μm
Dv 0.1 [4, 8]: 1.0 μm
Dv 0.5 [4, 8]: 2.1 μm
Dv 0.9 [4, 8]: 4.5 μm
Dv 0.1 ([5]; surfactant Aerosol OT, DME): 0.9 μm
Dv 0.5 ([5]; surfactant Aerosol OT, DME): 1.5 μm
Dv 0.9 ([5]; surfactant Aerosol OT, DME): 2.4 μm
Dv 0.1 [5, 9]: 0.7 μm
Dv 0.5 [5, 9]: 1.4 μm
Dv 0.9 [5, 9]: 3.0 μm
SMILES: CC(C)(C)NC(=O)[C@@H]1C[C@@H]2CCCC[C@@H]2CN1C[C@@H](O)[C@H](Cc1ccccc1)NC(=O)[C@H](CC(N)=O)NC(=O)c1ccc2ccccc2n1 [Saquinavir]
